Results taken from patent US10183944B2 (Asana Biosciences, LLC, priority 2011, dated 2019).
Structures can show the parent of a compound that is named as a salt.

Target: Syk (356-635 amino acids) catalytic domain (Homo sapiens (Human), UniProt P43405)
Assay: Inhibition of enzymatic Syk kinase activity (radiometric)
Assay type: biochemical
Conditions: read-out: IC50 Syk
Description: The objective of this assay was to examine by radiometric method the ability of compounds to inhibit Syk kinase enzyme. Syk is capable of phosphorylating substrates such as VAV, LAT, SLP-76, which in turn activate MAPK, PLCγ signaling pathways. […] This in vitro assay tests the ability of syk to phosphorylate a substrate peptide in the presence of ATP. By using a radio-labeled form of ATP, it is possible to measure the amount of phosphorylation of the substrate. The enzyme transfers a radio-labeled phosphate group from γ32 P labeled ATP to pG4T. Briefly the enzyme was incubated with substrate, radio-labeled & cold ATP and substrate in buffer with or without compounds. At the end of the reaction, the reaction mixture was transferred on to a Multiscreen filter plate and unreacted γ^32P ATP was washed off. The filter plate was dried and the radioactivity was measured on a scintillation counter to estimate the incorporated radioactivity on the substrate. The percent inhibition of activity of the enzyme was calculated by comparing counts in the presence and absence of compounds. […] 2.5 μL of 10% DMSO or compound in 10% DMSO was added to the wells in a 96 well V-bottom plate. Optimized concentration of in-house Syk enzyme (different batches of Syk (356-635) kinase domain) were used at optimized concentrations) ranging from 0.035 ng to 7.5 ng/reaction diluted in assay buffer was added to a total volume of 12.5 μL). Compound and protein were incubated for 30 minutes at room temperature on a plate shaker. Ten μL of a substrate mix containing 100 μM ATP (0.25 μL), γ-P^32-ATP (0.1 μL; 10 μCi/μL), pG4T (0.25 μL; 10 mg/mL) and 1× assay buffer (9.4 μL) was added to all the wells. Samples were incubated at 30° C. for 10 minutes after mixing. The reaction was stopped by the addition of 8N HCl (13 μL) containing 100 mM ATP. Thirty μL of sample was transferred to the center of a 2×2 cm^2 Whatman® P81 chromatography paper. After allowing the sample to dry for one minute, the assay squares were washed 3 times for 5 minutes each in ortho-phosphoric acid (0.5%) and once in acetone. Assay squares were dried for 15 minutes in a 30° C. oven and transferred to 96 well optiplate. Microscint-O® reagent (100 μL, Perkin Elmer) was added to each well, the plate was sealed with Topseal®-A microplates and incubated for 10 minutes at room temperature at very low speed on rocker and the plate was read in the Topcount® NXL instrument. The following calculations were made: Fold induction=radioactivity counts (uncorrected values) in positive control/substrate control.

Row | IC50 [nM] | SMILES
1 | > 100 | O=c1[nH]ncc2nc(N3CCCCCC3)nc(Nc3ccc(F)cc3)c12 [Example 313, 2-(azepan-1-yl)-4-((4-fluorophenyl)amino)pyrimido[4,5-d]pyridazin-5(6H)-one]
2 | > 100 | N#CCC1CCN(c2ccc(Nc3nc(N4CCCCCC4)nc4cn[nH]c(=O)c34)cn2)CC1 [Example 97, 2-(1-(5-((2-(azepan-1-yl)-5-oxo-5,6-dihydropyrimido[4,5-d]pyridazin-4-yl)amino)pyridin-2-yl)piperidin-4-yl) acetonitrile]
3 | < 10 | NCC(=O)N1CCN(c2ccc(Nc3nc(-c4ccccc4)nc4cn[nH]c(=O)c34)cc2)CC1 [Example 14, 4-(4-(4-(2-aminoacetyl)piperazin-1-yl)phenylamino)-2-phenylpyrimido[4,5-d]pyridazin-5(6H)-one]
4 | > 100 | COc1cccc(Nc2nc(N3CCCCCC3)nc3cn[nH]c(=O)c23)c1 [Example 320, 2-(azepan-1-yl)-4-((3-methoxyphenyl)amino)pyrimido[4,5-d]pyridazin-5(6H)-one]
5 | < 50 | CC(C)(C#N)N1CCN(c2ccc(Nc3nc(N4CCCCCC4)nc4cn[nH]c(=O)c34)cc2)CC1 [Example 111, 2-(4-(4-((2-(azepan-1-yl)-5-oxo-5,6-dihydropyrimido[4,5-d]pyridazin-4-yl)amino)phenyl)piperazin-1-yl)-2-methylpropanenitrile]
6 | < 100 | N#CCN1CCN(c2nc(Nc3ccc(N4CCC5(CC4)CC5C(=O)O)cc3)c3c(=O)[nH]ncc3n2)CC1 (stereo not drawn) [Example 73, 6-(4-((2-(4-(cyanomethyl)piperazin-1-yl)-5-oxo-5,6-dihydropyrimido[4,5-d]pyridazin-4-yl)amino)phenyl)-6-azaspiro[2.5]octane-1-carboxylic acid]
7 | > 100 | N#CC1CCN(c2nc(Nc3ccc(CN4CCC(C(=O)O)CC4)cc3)c3c(=O)[nH]ncc3n2)CC1 [Example 76, 1-(4-((2-(4-cyanopiperidin-1-yl)-5-oxo-5,6-dihydropyrimido[4,5-d]pyrimido[4,5-d]pyridazin-4-yl)amino)benzyl)piperidine-4-carboxylic acid]
8 | > 100 | COc1nc(Nc2ccc(CN3CCNCC3)cc2)c2c(=O)[nH]ncc2n1 [Example 61, 2-methoxy-4-((4-(piperazin-1-ylmethyl)phenyl)amino)pyrimido[4,5-d]pyridazin-5(6H)-one hydrochloride]
9 | > 100 | N#CC1CCN(c2nc(Nc3ccc(N4CCC5(CC4)CC5C(=O)O)cc3)c3c(=O)[nH]ncc3n2)CC1 (stereo not drawn) [Example 74, 6-(4-((2-(4-cyanopiperidin-1-yl)-5-oxo-5,6-dihydropyrimido[4,5-d]pyridazin-4-yl)amino)phenyl)-6-azaspiro[2.5]octane-1-carboxylic acid]
10 | > 100 | CCOC(=O)C1CC12CCN(c1ccc(Nc3nc(-c4ccccc4)nc4cn[nH]c(=O)c34)cc1)CC2 (stereo not drawn) [Example 20, ethyl 6-(4-(5-oxo-2-phenyl-5,6-dihydropyrimido[4,5-d]pyridazin-4-ylamino)phenyl)-6-azaspiro[2.5]octane-1-carboxylate]
11 | > 100 | N#CCN1CCN(c2nc(Nc3ccc(OCCN4CCNCC4)cc3)c3c(=O)[nH]ncc3n2)CC1 [Example 230, 2-(4-(5-oxo-4-((4-(2-(piperazin-1-yl)ethoxy)phenyl)amino)-5,6-dihydropyrimido[4,5-d]pyridazin-2-yl)piperazin-1-yl)acetonitrile]
12 | < 100 | N#CC1CCN(c2nc(Nc3ccc(N4CCC(CC(=O)O)CC4)cc3)c3c(=O)[nH]ncc3n2)CC1 [Example 75, 2-(1-(4-((2-(4-cyanopiperidin-1-yl)-5-oxo-5,6-dihydropyrimido[4,5-d]pyridazin-4-yl)amino)phenyl)piperidin-4-yl)acetic acid]
13 | > 100 | O=c1[nH]ncc2nc(N3CCCCCC3)nc(Nc3ccc(N4CCC(F)(F)CC4)cc3)c12 [Example 279, 2-(azepan-1-yl)-4-((4-(4,4-difluoropiperidin-1-yl)phenyl)amino) pyrimido[4,5-d]pyridazin-5(6H)-one]
14 | > 100 | N#CCC1CCN(c2ccc(Nc3nc(-c4ccccc4)nc4cn[nH]c(=O)c34)cc2)CC1 [Example 82, 2-(1-(4-((5-oxo-2-phenyl-5,6-dihydropyrimido[4,5-d]pyridazin-4-yl)amino)phenyl)piperidin-4-yl)acetonitrile]
15 | > 100 | O=C(O)C1CC12CCN(c1ccc(Nc3nc(-c4ccncc4)nc4cn[nH]c(=O)c34)cc1)CC2 (stereo not drawn) [Example 138, 6-(4-((5-oxo-2-(pyridin-4-yl)-5,6-dihydropyrimido[4,5-d]pyridazin-4-yl)amino)phenyl)-6-azaspiro[2.5]octane-1-carboxylic acid]

The next lines start with the molecule.

Row | SMILES | IC50 [nM]
16 | CCN1CCN(CCn2cc(Nc3nc(-c4ccccc4)nc4cn[nH]c(=O)c34)cn2)CC1 [Example 65, 4-((1-(2-(4-ethylpiperazin-1-yl)ethyl)-1H-pyrazol-4-yl)amino)-2-phenylpyrimido[4,5-d]pyridazin-5(6H)-one] | > 100
17 | CCn1nnc(-c2ccc(Nc3nc(N4CCC(CC#N)CC4)nc4cn[nH]c(=O)c34)cc2)n1 [Example 226, 2-(1-(4-((4-(2-ethyl-2H-tetrazol-5-yl)phenyl)amino)-5-oxo-5,6-dihydropyrimido[4,5-d]pyridazin-2-yl)piperidin-4-yl)acetonitrile] | > 100
18 | O=c1[nH]ncc2nc(-c3ccccc3)nc(Nc3ccc(OCCN4CCOCC4)cc3)c12 [Example 94, 4-((4-(2-morpholinoethoxy)phenyl)amino)-2-phenylpyrimido[4,5-d]pyridazin-5(6H)-one] | < 100
19 | N#CCC1CCN(c2nc(Nc3cccc(CO)c3)c3c(=O)[nH]ncc3n2)CC1 [Example 311, 2-(1-(4-((3-(hydroxymethyl)phenyl)amino)-5-oxo-5,6-dihydropyrimido[4,5-d]pyridazin-2-yl)piperidin-4-yl) acetonitrile] | > 100
20 | COC(=O)c1ccc(-c2nc(Nc3ccc(N4CCOCC4)cc3)c3c(=O)[nH]ncc3n2)cc1 [Example 29, methyl 4-(4-(4-morpholinophenylamino)-5-oxo-5,6-dihydropyrimido[4,5-d]pyridazin-2-yl)benzoate] | > 100
21 | O=c1[nH]ncc2nc(-c3ccccc3)nc(Nc3cnn(CCN4CCNCC4)c3)c12 [Example 63, 2-phenyl-4-((1-(2-(piperazin-1-yl)ethyl)-1H-pyrazol-4-yl)amino)pyrimido[4,5-d]pyridazin-5(6H)-one hydrochloride] | > 100
22 | N#CCC1CCN(c2nc(Nc3ccc4c(c3)OCO4)c3c(=O)[nH]ncc3n2)CC1 [Example 328, 2-(1-(4-(benzo[d][1,3]dioxol-5-ylamino)-5-oxo-5,6-dihydropyrimido[4,5-d]pyridazin-2-yl)piperidin-4-yl) acetonitrile] | > 100
23 | O=c1[nH]ncc2nc(N3CCCCCC3)nc(Nc3ccc(N4CCC5(CC4)CC5CO)cc3)c12 (stereo not drawn) [Example 258, 2-(azepan-1-yl)-4-((4-(1-(hydroxymethyl)-6-azaspiro[2.5]octan-6-yl)phenyl)amino) pyrimido[4,5-d]pyridazin-5(6H)-one] | < 100
24 | N#CCC1CCN(c2nc(Nc3ccc(N4CCC(O)CC4)cc3)c3c(=O)n(COP(=O)(O)O)ncc3n2)CC1 [Example 330, sodium (2-(4-(cyanomethyl)piperidin-1-yl)-4-((4-(4-hydroxypiperidin-1-yl)phenyl)amino)-5-oxopyrimido[4,5-d]pyridazin-6(5H)-yl)methyl phosphate] | > 100
25 | N#CCC1CCN(CCN2CCC(Nc3nc(N4CCCCCC4)nc4cn[nH]c(=O)c34)CC2)CC1 [Example 204, 2-(1-(2-(4-((2-(azepan-1-yl)-5-oxo-5,6-dihydropyrimido[4,5-d]pyridazin-4-yl)amino)piperidin-1-yl)ethyl)piperidin-4-yl)acetonitrile] | > 100
26 | COc1cccc(-c2nc(Nc3ccc(N4CCC(CC#N)CC4)cc3)c3c(=O)[nH]ncc3n2)c1 [Example 163, 2-(1-(4-((2-(3-methoxyphenyl)-5-oxo-5,6-dihydropyrimido[4,5-d]pyridazin-4-yl)amino)phenyl)piperidin-4-yl)acetonitrile] | > 100
27 | O=c1[nH]ncc2nc(-c3ccccc3)nc(Nc3ccc(OC[C@@H]4CO[C@@H](CO)CO4)cc3)c12 [Example 122, 4-((4-(((2S,5S)-5-(hydroxymethyl)-1,4-dioxan-2-yl)methoxy)phenyl)amino)-2-phenylpyrimido[4,5-d]pyridazin-5(6H)-one] | > 100
